Assay [1] in a line: Body mass of mdx mice over 16 weeks. It is filed as in vivo, mouse. The following applies: for Total body mass / Total body mass, difference to vehicle: at week 15, CBD 120 mg/kg/day, DFZ 1.2 mg/kg/day. The protocol:
(§1) Mdx mice were bred and housed according to Home Office regulations. At 6 weeks of age groups of female mdx mice (control n=18, deflazcort n=18, CBD n=19) were acclimatised to 3.5% Kolliphor/water (v/v) in drinking water.
(§2) Control groups were maintained on 3.5% Kolliphor for the duration of the study. Deflazacort (DFZ) groups were maintained on 3.5% Kolliphor for 2 weeks and then maintained on 1.2 mg/kg/day DFZ in 3.5% Kolliphor for 16 weeks (n=8).
(§3) CBD groups were acclimatised to 3.5% Kolliphor for 7 days. On day 7, 3.5% Kolliphor was supplemented with CBD at 75 mg/kg/day for 3 days; CBD was then increased to 120 mg/kg/day for 16 weeks (n=8).
Mice and bottles were weighed twice weekly to monitor body mass and consumption. Mice are housed in groups, therefore average consumption is calculated.

The subject of assay [2] is Mdx mice. Briefly: CD8 positive cells in spleens of mdx mice at week 4. It is filed as in vivo, mouse. Particulars: spleen. As for the experimental part: as §1, §2, §3
Spleens were recovered at week 4 and CD8 positive cells were analysed.

Assay [3] deals with Mouse C2C12 myoblasts. In words: Short-term (10 min) CBD exposure of differentiating C2C12 myoblasts, qPCR. It is filed as cell-based. Particulars: DM+1 μM for 10 min. The protocol:
(§4) Mouse C2C12 myoblasts were propagated in a growth medium (GM) composed of Dulbecco's modified Eagle's medium supplemented with 10% fetal bovine serum (FBS), 50 U/ml penicillin plus 50 μg/ml streptomycin, and 1% L-glutamine (Invitrogen, Milan, Italy), in a humidified atmosphere of 95% air/5% CO2 at 37° C.
(§5) Exposure of proliferating C2C12 cells for 24 to 72 h to a lower (from 10% to 0.1%) FBS concentration, plus the addition of 5 μg/ml insulin and 5 μg/ml transferrin (differentiation medium, DM), induced their differentiation into myotubes.
(§6) Total RNA was isolated from […] by use of the TRI-Reagent (Life Technology, Milan, Italy), reacted with DNase-I (1 U/μl; Sigma-Aldrich) following the manufacturer's instructions, and then quantified by spectrophotometric analysis.
(§7) PCR detection system (Bio-Rad, Segrate MI, Italy) with specific primers by the use of SYBR Green detection (Bio-Rad, Segrate MI, Italy). Samples were amplified simultaneously in quadruplicate in one-assay run with a non-template control blank for each primer pair to control for contamination or primer-dimers formation, and the ct (cycle threshold) value for each experimental group was determined.
(§8) The housekeeping genes (the ribosomal protein S16) has been used as an internal control to normalize the ct values, using the 2-dCt formula; differences in mRNA content between groups were as expressed as 2-ddct, as previously described (Iannotti et al. 2013)
The potential effect of short term CBD exposure at 1 μM on differentiating C2C12 cells was also tested.
The day after plating, C2C12 myoblasts were exposed to DM in presence or not of 1 μM CBD for 10 min.
A general note: In qPCR the cycle at which signal appears reflects the starting amount.

For assay [4], the system named is Mouse C2C12 myoblasts. In words: C2C12 myoblast differentiation, qPCR of Myog and Tnnt-1 mRNA. In kind it is cell-based. The following applies: 24 h in DM, C2C12 cells, vs vehicle. As for the experimental part:
as §4, §5, §6
Both sides of the hippocampus were analysed. Final preparation of RNA was considered DNA- and protein-free if the ratio between readings at 260/280 nm was >1.7. The purified mRNA was reverse-transcribed by use of reverse transcriptase (enzyme-VILO) (Life Technology, Milan, Italy). Quantitative real-time PCR was carried out in CFX384 real time
as §7, §8
In order to gain information about the potential effects of phytocannabinoids on myoblast differentiation, C2C12 cells were induced to differentiate for 24-48 h in DM in the presence or absence of various phytocannabinoids.
qPCR analysis was then utilized to evaluated the expression level of the canonical developmentally regulated skeletal markers Myog and Tnnt-1.

Assay [5] has as its system Mouse C2C12 myoblasts. In words: Western blot analysis of MyHC protein in differentiating C2C12 cells. In kind it is cell-based. Particulars: 72 h exposure to DM+1 μM CBD, relative to control conditions. As for the experimental part: as §4, §5
Cells were washed two times in cold PBS and lysed with lysis solution (150 mM NaCl, 1 mM EDTA, pH 7.4, 10 mM Tris-HCl, pH 8, 1% SDS, and protease inhibitors). Lysates (50-60 ug) were boiled 5 min in Laemmli SDS loading buffer and separated by 8% SDS-polyacrylamide gel electrophoresis. Filters were incubated overnight at 4° C. with a mouse anti-MyHC (dilution, 1:1000; Millipore).
An anti-tubulin antibody (dilution, 1:5000; Sigma-Aldrich) was used to check for equal protein loading. Reactive bands were detected by chemiluminescence (ECL-plus; GE Healthcare). Images were analysed on a ChemiDoc station with Quantity one software (Bio-Rad, Segrate, Italy).
The effect of CBD 1 μM on myotube formation was confirmed by western blot analysis.

Assay [6] has as its system Primary human satellite cells (SC). In words: Human satellite cell differentiation, qPCR of Myog, Tnnt-1 and MyHC mRNA. Particulars: 5 days of SC exposure to DM, vs vehicle. In kind it is cell-based. The protocol:
(§9) Primary human satellite cells (SC) were purchased from Innoprot Inc (Bizkaia-Spain) and propagated in a growth medium (GM) which contains essential and non-essential amino acids, vitamins, organic and inorganic compounds, hormones, growth factors, trace minerals and a low concentration of fetal bovine serum (5%) (Innoprot lnc/Bizkaia-Spain) in a humidified atmosphere of 95% air/5% CO2 at 37° C.
(§10) Exposure of proliferating satellite cells 4-5 days to a lower (from 10% to 0.1%) FBS concentration, plus the addition of 5 μg/ml insulin and 5 μg/ml transferrin (differentiation medium, DM), induced their differentiation into myotubes.
As described in Example 1
To further investigate the effects of the cannabinoids CBD, CBDV and THCV on human skeletal muscle precursor cell differentiation qPCR analysis was used.
In particular, skeletal muscle cell differentiation was quantified by measuring the transcript levels of myogenin (Myog), Troponin (Tnnt-1) and Myosin Heavy Chain (MyHC). All of which are widely considered muscle-specific markers, required for myotube formation.

The test system is the same in assay [7]. Briefly: Phase contrast microscopy of differentiating primary human satellite cells. It is filed as cell-based. The following applies: for Morphology of differentiating SC with respect to vehicle (DMSO) control: after 4 and 5 days of exposure to DM. As for the experimental part:
as §9, §10
Differentiating primary human satellite cells were also examined in phase contrast mode by means of conventional light microscopy. […] In particular, after 5 days of incubation in the presence of phytocannabinoids, the cells appeared more fused and with mature myotubes being larger in size.

Assay [8] has as its system Mdx mice. In words: Real time PCR of gastrocnemius muscle of mdx mice at week 4. It is filed as in vivo, mouse. As for the experimental part: as §1, §2, §3
Gastrocnemius muscle was recovered at week 4 and relative gene expressions were determined.
RNA was extracted from cells following treatment with CBD. Control RNA was extracted from the control group (RNeasy kit, Qiagen). 2 μg of RNA from each sample was reversed transcribed using oligo dT primers (rt nanoscript 2, Primer Design).
Stable endogenous control genes (Pak1lip1, Htatfs1) were identified using the mouse GeNorm Kit qbase+software (Primer Design).
Real time PCR was conducted using SYBR green (Life Technologies) on an AB Biosystems Thermocycler. All real time PCR experiments were conducted with the following reaction conditions. Initial 95° C. 10 mins, followed by 40 cycles of 95° C. for 15 secs, 60° C. for 1 min, followed by melt curve analysis.
Relative levels of gene expression were determined using the standard curve method and are expressed relative to the average of the endogenous controls.

Consider `C=C(C)[C@@H]1CCC(C)=C[C@H]1c1c(O)cc(CCCCC)cc1O` [CBD, Cannabidiol], for which, in assay [1], the Total body mass came to 29.42 g and the “Total body mass, difference to vehicle” value came out at 5.6%. The “Total body mass compared with vehicle group” value in assay [1] (up to week 4, CBD 120 mg/kg/day in drinking water) is reported as “did not differ”. Further, the “Total percentage CD8 population, difference to vehicle” value with Mdx mice [2] (n=9) worked out at 19.7%. Moreover, in the assay with Mdx mice [2] (n=9, vehicle 10.9%), the “Total percentage CD8 population” value is reported as 8.7%. In the assay with Mouse C2C12 myoblasts [3] (then DM without drug for 3 h), the Myog transcript level entry is given as “significantly higher” and the Tnnt-1 transcript level entry is “significantly higher”. In the assay with Mouse C2C12 myoblasts [3] (then DM without drug for 24 h), the Myog transcript level result is “significantly higher” and the Tnnt-1 transcript level result is “significantly higher”. In the assay with Mouse C2C12 myoblasts [4] (1 μM), the “Myogenin (Myog) mRNA expression level” value is recorded as “significant increase” and the “Troponin (Tnnt-1) mRNA expression level” value is “significant increase”. Further, in the assay with Mouse C2C12 myoblasts [5], the “Myosin Heavy Chain (MyHC) protein expression” value is given as “significantly increased”. Also, in assay [6] (1 μM), the MyHC transcript level result is given as “significantly increased”, the Myog transcript level result is on record as “significantly increased” and the Tnnt-1 transcript level result was “significantly increased”. Besides, the “Morphology of differentiating SC with respect to vehicle (DMSO) control” value (“Morphology of differentiating SC” for short) in assay [7] (1 μM) is reported as “clear morphological differences”. For the same compound, the “Mitochondrially encoded NADH dehydrogenase 2 (MT-ND2) relative gene expression, upregulation” value in the assay with Mdx mice [8] (n=4) is reported as 253.2%. Further, in the assay with Mdx mice [8] (n=9), the “PGC1a relative gene expression, upregulation” value was determined as 125.8% and the “Sirtuin-1 (Sirt1) relative gene expression, upregulation” value was determined as 84.9%.
With `C=C(C)[C@@H]1CCC(C)=C[C@H]1c1c(O)cc(CCCCC)c(C(=O)O)c1O` [CBDA, Cannabidiolic acid], the “Myogenin (Myog) mRNA expression level” value in the assay with Mouse C2C12 myoblasts [4] (1 μM) and with Mouse C2C12 myoblasts [4] (3 μM) was “significantly reduced” throughout. The “Troponin (Tnnt-1) mRNA expression level” value with Mouse C2C12 myoblasts [4] (1 μM) and in the assay with Mouse C2C12 myoblasts [4] (3 μM) was “significantly reduced” throughout.
As for `C=C(C)[C@@H]1CCC(C)=C[C@H]1c1c(O)cc(CCC)cc1O` [CBDV, Cannabidivarin], in the assay on Mouse C2C12 myoblasts [4] (1 μM), the “Myogenin (Myog) mRNA expression level” value is “significant increase” and the “Troponin (Tnnt-1) mRNA expression level” value was “significant increase”. Besides, in the assay on Mouse C2C12 myoblasts [4] (3 μM), the “Myogenin (Myog) mRNA expression level” value was “significant increase” and the “Troponin (Tnnt-1) mRNA expression level” value is recorded as “significant increase”. For the same compound, in assay [6] (3 μM), the MyHC transcript level entry is “significantly increased”, the Myog transcript level entry is “significantly increased” and the Tnnt-1 transcript level entry was “significantly increased”. Further, the “Morphology of differentiating SC” value in assay [7] (3 μM) is given as “clear morphological differences”.
Turning to `CCCCCc1cc(O)c(C/C=C(\C)CCC=C(C)C)c(O)c1` [CBG, Cannabigerol], in the assay with Mouse C2C12 myoblasts [4] (3 μM), the “Myogenin (Myog) mRNA expression level” value is on record as “significantly reduced” and the “Troponin (Tnnt-1) mRNA expression level” value is reported as “significantly reduced”.
As to `CCCc1cc(O)c2c(c1)OC(C)(C)[C@@H]1CCC(C)=C[C@@H]21` [THCV, Tetrahydrocannabivarin], in the assay on Mouse C2C12 myoblasts [4] (1 μM), the “Myogenin (Myog) mRNA expression level” value is “did not produced significant effects” and the “Troponin (Tnnt-1) mRNA expression level” value is on record as “did not produced significant effects”. In the assay on Mouse C2C12 myoblasts [4] (3 μM), the “Myogenin (Myog) mRNA expression level” value was “did not produced significant effects” and the “Troponin (Tnnt-1) mRNA expression level” value is reported as “did not produced significant effects”. In assay [6] (3 μM), the MyHC transcript level entry was “significantly increased”, the Myog transcript level result is “significantly increased” and the Tnnt-1 transcript level result is recorded as “significantly increased”. Also, the “Morphology of differentiating SC” value in assay [7] (3 μM) was “clear morphological differences”. Also, in assay [7] (after 5 days of incubation, CBD 1 μM, CBDV and THCV 3 μM), the “Cell fusion and size of mature myotubes” value is “more appreciable”.
Turning to `CC(=O)OCC(=O)[C@@]12N=C(C)O[C@@H]1C[C@H]1[C@@H]3CCC4=CC(=O)C=C[C@]4(C)[C@H]3[C@@H](O)C[C@@]12C` [deflazacort, Deflazacort, reference compound], in assay [1], the Total body mass is listed as 26.26 g and the “Total body mass, difference to vehicle” value stood at 15.8%. Besides, the “Total body mass, lighter than vehicle and CBD groups” value in assay [1] (up to week 4, deflazacort 1.2 mg/kg/day in drinking water) is reported as 8.9%. Further, in the assay on Mdx mice [2], the “Effect on total percentage CD8 population” value is given as “unaffected”.

These data come from patent US10226433B2, “Use of cannabinoids in the treatment of degenerative skeletal muscle diseases” (GW Research Limited, priority 2014, dated 2019).
